Measurements reported in ChEMBL document CHEMBL1147466 (Bioorg Med Chem Lett, 2004).

What was measured:
[1] = molecular target: T1, Lysophosphatidic acid receptor 1 (Homo sapiens, UniProt Q92633); assay: Maximal efficacy to that of maximal efficacy of LPA against lysophosphatidic acid receptor 1 was determined in vitro
[2] = molecular target: T1, Lysophosphatidic acid receptor 1; assay: Agonistic activity against lysophosphatidic acid receptor 1 receptor using [35S]GTP-gamma-S as radioligand tested in vitro; type: functional
[3] = molecular target: T2, Lysophosphatidic acid receptor 3 (Homo sapiens, UniProt Q9UBY5); assay: Agonistic activity against lysophosphatidic acid receptor 3 using [35S]GTP-gamma-S as radioligand tested in vitro; type: functional
T2 sequence (Q9UBY5 whole entry): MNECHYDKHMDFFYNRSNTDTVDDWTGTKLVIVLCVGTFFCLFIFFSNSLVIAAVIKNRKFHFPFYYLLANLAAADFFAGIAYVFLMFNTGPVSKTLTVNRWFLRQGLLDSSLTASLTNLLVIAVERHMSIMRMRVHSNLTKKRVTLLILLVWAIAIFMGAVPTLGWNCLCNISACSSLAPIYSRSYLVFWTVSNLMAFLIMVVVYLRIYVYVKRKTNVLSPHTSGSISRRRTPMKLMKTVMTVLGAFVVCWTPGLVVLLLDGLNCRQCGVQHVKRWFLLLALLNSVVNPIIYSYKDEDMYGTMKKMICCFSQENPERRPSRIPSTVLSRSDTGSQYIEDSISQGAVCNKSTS

[4] = molecular target: T3, Lysophosphatidic acid receptor 2 (Homo sapiens, UniProt Q9HBW0); assay: Agonistic activity against lysophosphatidic acid receptor 2 using [35S]GTP-gamma-S as radioligand tested in vitro; type: functional
T3 sequence (Q9HBW0 whole entry): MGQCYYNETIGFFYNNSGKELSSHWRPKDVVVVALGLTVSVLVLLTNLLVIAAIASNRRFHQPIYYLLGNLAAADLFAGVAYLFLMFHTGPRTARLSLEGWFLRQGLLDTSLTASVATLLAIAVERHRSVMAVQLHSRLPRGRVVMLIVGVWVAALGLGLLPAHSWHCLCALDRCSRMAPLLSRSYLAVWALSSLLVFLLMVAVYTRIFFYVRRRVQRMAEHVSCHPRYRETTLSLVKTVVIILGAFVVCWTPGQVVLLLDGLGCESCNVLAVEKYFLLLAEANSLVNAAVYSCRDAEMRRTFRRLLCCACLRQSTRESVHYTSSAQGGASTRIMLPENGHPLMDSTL

[5] = molecular target: T3, Lysophosphatidic acid receptor 2; assay: Maximal efficacy to that of maximal efficacy of LPA against lysophosphatidic acid receptor 2 was determined in vitro
[6] = molecular target: T1, Lysophosphatidic acid receptor 1; assay: Agonistic activity against lysophosphatidic acid receptor 1 using [35S]GTP-gamma-S as radioligand tested in vitro; type: functional
[7] = molecular target: T4, Lysophosphatidic acid receptor 3 (Homo sapiens) (UniProt Q9UBY5); assay: Maximal efficacy to that of maximal efficacy of LPA against lysophosphatidic acid receptor 3 was determined in vitro
T4 sequence (whole entry): T2 sequence (Q9UBY5 whole entry)

T1 sequence (Q92633 whole entry): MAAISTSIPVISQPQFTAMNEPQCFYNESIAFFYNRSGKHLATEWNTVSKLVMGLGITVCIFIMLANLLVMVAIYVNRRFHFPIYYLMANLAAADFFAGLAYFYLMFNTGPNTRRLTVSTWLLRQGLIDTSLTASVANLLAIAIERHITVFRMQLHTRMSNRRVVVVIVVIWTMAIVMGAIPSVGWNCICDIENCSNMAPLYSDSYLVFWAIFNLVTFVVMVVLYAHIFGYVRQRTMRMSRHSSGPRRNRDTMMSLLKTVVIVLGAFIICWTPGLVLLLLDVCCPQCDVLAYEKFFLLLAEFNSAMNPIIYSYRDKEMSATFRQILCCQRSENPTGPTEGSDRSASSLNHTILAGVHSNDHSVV

Row | SMILES | Emax [1] [%] | EC50 [2] [µM] | EC50 [3] [µM] | EC50 [4] [µM] | Emax [5] [%] | EC50 [6] [µM] | Emax [7] [%]
1 | CCCCCCCC/C=C\CCCCCCCC(=O)NCCC(O)P(=O)(O)O (stereo unspecified) | 80 | 1.23 | > 5 | 2.07 | 90 | – | –
2 | CCCCCCCC/C=C\CCCCCCCC(=O)NCCC(F)P(=O)(O)O (stereo unspecified) | – | – | > 5 | 1.96 | 100 | > 5 | –
3 | CCCCCCCC/C=C\CCCCCCCC(=O)NCCC(=O)P(O)(O)=S | 80 | – | > 5 | 0.108 | 46 | 0.04 | –
4 | CCCCCCCC/C=C\CCCCCCCC(=O)NCCC(O)(P(=O)(O)O)P(=O)(O)O | – | – | > 5 | > 5 | – | > 5 | –
5 | CCCCCCCC/C=C\CCCCCCCC(=O)OC[C@@H](O)COP(=O)(O)O [LYSOPHOSPHATIDIC ACID] | 100 | – | – | – | 100 | 0.017 | 100
6 | CCCCCCCC/C=C\CCCCCCCC(=O)NCCOP(=O)(O)O | 100 | – | – | – | 110 | – | –
7 | CCCCCCCC/C=C\CCCCCCCC(=O)NCCC(=S)P(=O)(O)O | 50 | – | > 5 | > 5 | – | 0.318 | –
8 | CCCCCCCC/C=C\CCCCCCCC(=O)NCCCP(=O)(O)O | 50 | – | > 5 | > 5 | – | 1.95 | –
9 | CCCCCCCC/C=C\CCCCCCCC(=O)NCCC(=O)P(=O)(O)O | 80 | – | > 5 | 1.09 | 90 | 0.221 | –
